Laboratory results from patent publication US8134015B2, “Compound inhibiting in vivo phosphorous transport and medicine containing the same” (Kyowa Hakko Kirin Co., Ltd., priority 2003, dated 2012).

Target: T1, rat NaPi-2b (Rattus norvegicus, UniProt Q9JJ09)
T1 construct: expressed in transfected cells; host or cells: Xenopus oocytes injected with cRNA
T1 sequence (Q9JJ09 1-695): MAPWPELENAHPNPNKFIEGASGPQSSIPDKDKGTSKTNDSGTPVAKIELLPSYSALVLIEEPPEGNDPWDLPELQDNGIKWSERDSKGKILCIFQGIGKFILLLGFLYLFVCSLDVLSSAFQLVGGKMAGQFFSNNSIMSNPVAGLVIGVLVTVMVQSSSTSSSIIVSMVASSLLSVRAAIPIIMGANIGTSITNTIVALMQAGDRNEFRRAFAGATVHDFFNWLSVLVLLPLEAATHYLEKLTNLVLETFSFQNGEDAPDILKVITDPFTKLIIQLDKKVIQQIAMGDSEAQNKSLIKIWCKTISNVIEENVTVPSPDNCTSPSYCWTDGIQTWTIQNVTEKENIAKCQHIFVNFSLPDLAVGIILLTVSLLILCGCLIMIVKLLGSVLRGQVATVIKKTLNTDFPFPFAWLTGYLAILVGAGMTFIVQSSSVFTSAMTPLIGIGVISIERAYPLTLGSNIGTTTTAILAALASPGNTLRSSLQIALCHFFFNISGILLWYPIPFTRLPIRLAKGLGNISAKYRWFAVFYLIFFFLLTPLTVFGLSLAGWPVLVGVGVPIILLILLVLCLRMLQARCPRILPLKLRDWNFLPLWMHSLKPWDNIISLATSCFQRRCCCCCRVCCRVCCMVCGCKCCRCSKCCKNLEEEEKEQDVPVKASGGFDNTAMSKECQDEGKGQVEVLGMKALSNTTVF
Experiment: Sodium-dependent phosphate uptake of Xenopus oocytes which expressed NaPi-2b (32P)
Type: cell-based
Conditions: for IC50: Xenopus oocytes expressing rat NaPi-2b, 32P radioactive phosphorus, read-out: IC50 (phosphate uptake inhibitory activity); for inhibition at 300 µM: phosphate uptake, oocytes expressing rat NaPi-2b, determined from inhibition curve
Method in brief: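 Inhibition at 300 μM and 100 μM was read off one inhibition curve of 32P phosphate uptake. Uptake was measured in Xenopus oocytes cultured 2 days after injection of cRNA for cloned rat NaPi-2b.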

Structure (SMILES) | IC50 [µM] | inhibition at 300 µM [%]
Cc1cccc(/C=N/NC(=O)c2cc(Br)ccc2NC(=O)c2ccc(CN3CCN(CCO)CC3)cc2)c1 [Compound 318, N-[4-Bromo-2-(3-methyl-benzylidene-hydrazinocarbonyl)-phenyl]-4-[4-(2-hydroxy-ethyl)-piperazin-1-ylmethyl]-benzamide] | 2.49 | –
COc1ccc(C(=O)Nc2ccc(Br)cc2C(=O)N/N=C/c2cccc(C)c2)cc1OC [Compound 31, N-[4-Bromo-2-(3-methyl-benzylidene-hydrazinocarbonyl)-phenyl]-3,4-dimethoxy-benzamide] | 0.58 | –
O=C(Nc1ccc(OCCCN2CCCCC2)cc1C(=O)N/N=C/c1ccc(Cl)c(C(F)(F)F)c1)c1cccc(CSCCO)c1 [Compound 1039, N-[2-(4-Chloro-3-trifluoromethyl-benzylidene-hydrazinocarbonyl)-4-(3-piperidin-1-yl-propoxy)-phenyl]-3-(2-hydroxy-ethylsulfanylmethyl)-benzamide] | 2.76 | –
CCN(CC)CCNCc1ccc(C(=O)Nc2ccc(Br)cc2C(=O)N/N=C/c2ccc(Cl)c(C(F)(F)F)c2)cc1 [Compound 297, N-[4-Bromo-2-(4-chloro-3-trifluoromethyl-benzylidene-hydrazinocarbonyl)-phenyl]-4-[(2-diethylamino-ethylamino)-methyl]-benzamide] | 0.96 | –
Cc1ccc(/C=N/NC(=O)c2cc(Br)ccc2NC(=O)c2ccc(CNCCN3CCOCC3)cc2)cc1C [Compound 281, N-[4-Bromo-2-(3,4-dimethyl-benzylidene-hydrazinocarbonyl)-phenyl]-4-[(2-morpholin-4-yl-ethylamino)-methyl]-benzamide] | 4.6 | –
CCSCCNCc1ccc(C(=O)Nc2ccc(Br)cc2C(=O)N/N=C/c2cccc(C)c2)cc1 [Compound 766, N-[4-Bromo-2-(3-methyl-benzylidene-hydrazinocarbonyl)-phenyl]-4-[(2-ethylsulfanyl-ethylamino)-methyl]-benzamide] | – | 81.9
Cc1ccc(/C=N/NC(=O)c2c(NC(=O)c3cccc(CN(CC(C)O)CC(C)O)c3)sc3c2CCC3)cc1 (stereo not shown) [Compound 805, 3-{[Bis-(2-hydroxy-propyl)-amino]-methyl}-N-[3-(4-methyl-benzylidene-hydrazinocarbonyl)-5,6-dihydro-4H-cyclopenta[b]-thiophen-2-yl]-benzamide] | 4.76 | –
O=C(Nc1sccc1C(=O)N/N=C/c1ccc(Cl)c(C(F)(F)F)c1)c1cccc(CSCCCO)c1 [Compound 662, N-[3-(4-Chloro-3-trifluoromethyl-benzylidene-hydrazinocarbonyl)-thiophen-2-yl]-3-(3-hydroxy-propylsulfanylmethyl)-benzamide] | 3.2 | –
CCN(CC)Cc1cccc(C(=O)Nc2sc(CN3CCCCC3)c(C)c2C(=O)N/N=C/c2ccc(OC)cc2)c1 [Compound 957, 3-Diethylaminomethyl-N-[3-(4-methoxy-benzylidene-hydrazinocarbonyl)-4-methyl-5-piperidin-1-ylmethyl-thiophen-2-yl]-benzamide] | – | 54.9
COc1cc(OC)cc(C(=O)Nc2ccccc2C(=O)N/N=C/c2cccc(F)c2)c1 [Compound 55, N-[2-(3-Fluoro-benzylidene-hydrazinocarbonyl)-phenyl]-3,5-dimethoxy-benzamide] | 0.86 | –
CCN(CC)Cc1cccc(C(=O)Nc2ccsc2C(=O)N/N=C/c2cccc(F)c2)c1 [Compound 995, 3-Diethylaminomethyl-N-[2-(3-fluoro-benzylidene-hydrazinocarbonyl)-thiophen-3-yl]-benzamide] | – | 42.1
Cc1ccc(/C=N/NC(=O)c2cc(I)ccc2NC(=O)c2cccc(CN3CCC(N4CCCCC4)CC3)c2)cc1C [Compound 486, 3-[1,4′]Bipiperidinyl-1′-ylmethyl-N-[2-(3,4-dimethyl-benzylidene-hydrazinocarbonyl)-4-iodo-phenyl]-benzamide] | < 3 | –
CCN(CC)CCN(C)Cc1cccc(C(=O)Nc2ccc(I)cc2C(=O)N/N=C/c2ccc(F)cc2)c1 [Compound 473, 3-{[(2-Diethylamino-ethyl)-methyl-amino]-methyl}-N-[2-(4-fluoro-benzylidene-hydrazinocarbonyl)-4-iodo-phenyl]-benzamide] | < 3 | –
CCN1CC(NCc2ccc(C(=O)Nc3ccc(Br)cc3C(=O)N/N=C/c3ccc(Cl)c(C(F)(F)F)c3)cc2)CN1CC [Compound 754, N-[4-Bromo-2-(4-chloro-3-trifluoromethyl-benzylidene-hydrazinocarbonyl)-phenyl]-4-[(1,2-diethyl-pyrazolidin-4-ylamino)-methyl]-benzamide] | < 3 | –
COc1ccc(C(=O)Nc2ccccc2C(=O)N/N=C/c2cc(C(F)(F)F)ccc2F)cc1OC [Compound 44, N-[2-(2-Fluoro-5-trifluoromethyl-benzylidene-hydrazinocarbonyl)-phenyl]-3,4-dimethoxy-benzamide] | 4.71 | –
CCN(CC)CCN(C)Cc1cccc(C(=O)Nc2ccc(OCCCCF)cc2C(=O)N/N=C/c2ccc(Cl)c(C(F)(F)F)c2)c1 [Compound 1060, N-[2-(4-Chloro-3-trifluoromethyl-benzylidene-hydrazinocarbonyl)-4-(4-fluoro-butoxy)-phenyl]-3-{[(2-diethylamino-ethyl)-methyl-amino]-methyl}-benzamide] | 0.44 | –
Cc1ccc(/C=N/NC(=O)c2cc(N3CCCC3=O)ccc2NC(=O)c2cccc(CN(CC(C)O)CC(C)O)c2)cc1C (stereo not shown) [Compound 944, 3-{[Bis-(2-hydroxy-propyl)-amino]-methyl}-N-[2-(3,4-dimethyl-benzylidene-hydrazinocarbonyl)-4-(2-oxo-pyrrolidin-1-yl)-phenyl]-benzamide] | 12 | –
COc1ccc(C(=O)Nc2ccc(Br)cc2C(=O)N/N=C/c2ccccc2C)cc1OC [Compound 30, N-[4-Bromo-2-(2-methyl-benzylidene-hydrazinocarbonyl)-phenyl]-3,4-dimethoxy-benzamide] | 7.86 | –
O=C(Nc1ccc(Br)cc1C(=O)N/N=C/c1ccc(Cl)c(C(F)(F)F)c1)c1ccc(CN2CCN(CC(=O)N3CCOCC3)CC2)cc1 [Compound 306, N-[4-Bromo-2-(4-chloro-3-trifluoromethyl-benzylidene-hydrazinocarbonyl)-phenyl]-4-[4-(2-morpholin-4-yl-2-oxo-ethyl)-piperazin-1-ylmethyl]-benzamide] | 2.13 | –

Other lines, results leading:

IC50 [µM] | inhibition at 300 µM [%] | Structure (SMILES)
9.88 | – | COc1ccc(C(=O)Nc2ccccc2C(=O)N/N=C/c2cccs2)cc1OC [Compound 23, 3,4-Dimethoxy-N-[2-(thiophen-2-ylmethylene-hydrazinocarbonyl)-phenyl]-benzamide]
13.6 | – | O=C(N/N=C/c1cccc(F)c1)c1cc(Br)ccc1NC(=O)C1CCCCC1 [Compound 509, Cyclohexanecarboxylic acid [4-bromo-2-(3-fluoro-benzylidene-hydrazinocarbonyl)-phenyl]-amide]
– | 83.7 | O=C(Nc1ccc(Br)cc1C(=O)N/N=C/c1cccc(F)c1)c1ccc(CN2CCC(CCO)CC2)cc1 [Compound 744, N-[4-Bromo-2-(3-fluoro-benzylidene-hydrazinocarbonyl)-phenyl]-4-[4-(2-hydroxy-ethyl)-piperidin-1-ylmethyl]-benzamide]
< 3 | – | CCN(CCO)Cc1cccc(C(=O)Nc2ccc(Cl)cc2C(=O)N/N=C/c2ccc(F)cc2)c1 [Compound 423, N-[4-Chloro-2-(4-fluoro-benzylidene-hydrazinocarbonyl)-phenyl]-3-{[ethyl-(2-hydroxy-ethyl)-amino]-methyl}-benzamide]
15 | – | COc1ccc(C(=O)Nc2ccccc2C(=O)N/N=C/c2ccc(OC(F)(F)F)cc2)cc1OC [Compound 33, 3,4-Dimethoxy-N-[2-(4-trifluoromethoxy-benzylidene-hydrazinocarbonyl)-phenyl]-benzamide]
– | 51 | CN(C)CCn1nnnc1SCc1cccc(C(=O)Nc2ccc(Cl)cc2C(=O)N/N=C/c2ccc(O)cc2)c1 [Compound 471, N-[4-Chloro-2-(4-hydroxy-benzylidene-hydrazinocarbonyl)-phenyl]-3-[1-(2-dimethylamino-ethyl)-1H-tetrazol-5-ylsulfanylmethyl]-benzamide]
4.87 | – | Cc1cccc(/C=N/NC(=O)c2cc(Br)ccc2NC(=O)c2cccc(CSc3ccncc3)c2)c1 [Compound 197, N-[4-Bromo-2-(3-methyl-benzylidene-hydrazinocarbonyl)-phenyl]-3-(pyridin-4-ylsulfanylmethyl)-benzamide]
6.88 | – | CCSCCNCc1ccc(C(=O)Nc2ccc(Br)cc2C(=O)N/N=C/c2ccc(C)cc2)cc1 [Compound 765, N-[4-Bromo-2-(4-methyl-benzylidene-hydrazinocarbonyl)-phenyl]-4-[(2-ethylsulfanyl-ethylamino)-methyl]-benzamide]
3.39 | – | COc1ccc(/C=N/NC(=O)c2cc(Br)ccc2NC(=O)c2ccc(CN3CCC(N4CCCCC4)CC3)cc2)cc1 [Compound 314, 4-[1,4′]Bipiperidinyl-1′-ylmethyl-N-[4-bromo-2-(4-methoxy-benzylidene-hydrazinocarbonyl)-phenyl]-benzamide]
